Holding throughout (type): physicochemical
The nature of data set [1]: Stability studies at 40° C./75% RH (physical and chemical stability, XRPD). From the text:
In some embodiments, less than 25% of the solid form of Compound I decomposes, in some embodiments, less than about 20%, less than about 15%, less than about 10%, less than about 5%, less than about 3%, less than about 1%, less than about 0.5% of the form of Compound I decomposes under the conditions specified. In some embodiments, no detectable amount of the solid form of Compound I decomposes. […] In some embodiments, less than 25% of the solid form of Compound I changes into one or more different physical forms when subjected to specified conditions. In some embodiments, less than about 20%, less than about 15%, less than about 10%, less than about 5%, less than about 3%, less than about 1%, less than about 0.5% of the solid form of Compound I changes into one or more different physical forms of Compound I when subjected to specified conditions. In some embodiments, no detectable amount of the solid form of Compound I changes into one or more physically different solid forms of Compound I.

Data set [2] can be described thus: Solid form conversion on heating, cooling, storage, slurrying or addition of water (XRPD, VT-XRD). The conditions noted are these: for form conversion upon slurrying in a non-solvate forming solvent: slurry, MeOH and water (MeOH:H2O 1:1). How it is done:
Another form, Form P, was detected during the MeOH re-crystallization step used to prepare Form C from Form A. Form P is characterized below. When variable-temperature X-Ray diffraction (VT-XRD) of Form P was carried out in 5° C. increments from 25 to 50° C. and the resulting solid was cooled back to ambient conditions, it was observed that Form P transitions to Form A at approximately 40° C. and returns to Form P upon cooling back to room temperature. […] Both Form A and Form P are MeOH solvates.
1. Bruker D8 Discover with HighStar array detector with an accelerator voltage of 40 kV and current of 35 mA over a 120 second acquisition time. Each sample was prepared in a nickel sample holder and the subsequent pattern collected over two frames with a 2θ range of 4-41°. Variable temperature X-Ray diffraction (VT-XRD) was accomplished with a DHS900 Anton Paar heating stage with a TCU150 controller with a heating rate between steps of 10° C./min and an equilibration time of 5 minutes at temperature. 2. Siemens D5000 diffractometer using CuKα radiation (40 kV, 40 mA), θ-θ goniometer, automatic divergence and receiving slits, a graphite secondary monochromator and a scintillation counter. The data were collected over an angular 2 theta range of 2° to 42° in continuous scan mode using a step size of 0.02° and a step time of 1 second. Samples were run under ambient conditions and prepared as flat plate specimens using powder as received without grinding. Approximately 1-2 mg of the sample was slightly pressed on a glass slide to obtain a flat surface. Samples run under non-ambient conditions were mounted on a silicon wafer with heat conducting compounds. The sample was then heated to the appropriate temperature at ca. 20° C./min and subsequently held isothermally for ca 1 minute before data collection was initiated. 3. Bruker AXS C2 GADDS Diffractometer using CuKα radiation (40 kV, 40 mA), automated XYZ stage, laser video microscope for auto-sample positioning and a HiStar 2-dimensional area detector. X-Ray optics consists of a single Gobel multilayer mirror coupled with a pinhole collimator of 0.3 mm. Beam divergence, was approximately 4 mm. A θ-θ continuos scan mode was employed with a sample to detector distance of 20 cm which gives an effective 2θ range of 3.2-29.8°. A typical exposure time of a sample in this system would be 120 s. Samples were run under ambient conditions and prepared as flat plate specimens using powder as received without grinding. Approximately 25-50 mg of the sample was gently packed into 12 mm diameter, 0.5 mm deep cavities cut into polished, zero-background (510) silicon wafers (from The Gem Dugout). All specimens were run both stationary and rotated on their own plate during analysis. A further specimen was run using silicon powder as internal standard to correct for any peak displacement. Diffraction data were reported using Cu Kαl (l=1.5406 Å), after the Kαl component had been stripped using EVA, the powder patterns were indexed by the ITO method using WIN-INDEX and the raw lattice constants refined using WIN-METRIC. 4. Shimadzu XRD-6000 X-Ray powder diffractometer using CuKα radiation (40 kV, 40 mA) equipped with a fine-focus X-Ray tube. Divergence and Scattering slids were set at 1° and the receiving slit was set at 0.15 mm. A NaI scintillation detector detected diffracted irradiation. A θ-2θ continuous scan at 3°/min (0.4 sec/0.02° step) from 2.5° to 40° was used. A silicon standard was analyzed each day to check the instrument alignment. Each sample was prepared for analysis by pressing it onto the sample holder. 5. Inel XRG-3000 X-Ray powder diffractometer using CuKα radiation (40 kV, 30 mA). This was equipped with a curved position-sensitive detector. Data was collected in real time over a 2 θ range of 120° at a resolution of 0.03°. Samples were packed in an aluminum holder with a silicon insert and analyzed. A silicon standard was analyzed each day to check for instrument alignment. […]

A short description of data set [3]: Solubility analysis (in water). The conditions noted are these: 25° C. The protocol: This was measured by suspending enough Compound I in 0.25 mL of solvent (water) to give a maximum final concentration of ≧10 mg/ml of the parent free form of the compound. The suspension was equilibrated at 25° C. for 24 hrs followed by a pH check and filtration through a glass fibre C96 well plate. The filtrate was then diluted down by a factor of 101. Quantitation was by HPLC (Table XI) with reference to a standard, diluted and undiluted tests were injected. The solubility was calculated by integration of the peak area found at the same retention time as the peak maximum in the standard injection. If there is sufficient solid in the filter plate the XRPD is normally checked for phase changes, hydrate formation, amorphization, crystallization, etc.

A short description of data set [4]: Gravimetric vapour sorption (GVS) studies. The protocol:
All samples were run on a Hiden IGASorp moisture sorption analyzer running CFRSorp software. Sample sizes were typically 10 mg. A moisture absorption-desorption isotherm was performed as outlined below in Table X (2 scans giving 1 complete cycle). All samples were loaded/unloaded at typical room humidity and temperature (40% RH, 25° C.). All samples were analysed by XRPD post GVS analysis. The standard isotherm was performed at 25° C. at 10% RH intervals over a 0-90% RH range.

A short description of data set [5]: Relative stability studies: slurrying 1:1 mixtures of forms in 3:1 water:ethanol at various temperatures. The conditions noted are these: slurry in 3:1 water:ethanol. How it is done:
1:1 mixtures of Form C and form G of Compound I were slurried in 3:1 water:ethanol at a range of temperatures to determine the relative stability at different temperatures. 5 mg of Form C was mixed with 5 mg of Form G in a glass vial. 1.0 ml of 3:1 water:ethanol was added and the resulting slurry was stirred at 5° C. for 10 days. The resulting solid was isolated by filtration and analysed by XRPD (see FIG. 17).
(§1) The above procedure was repeated at 25, 50 and 80° C.
1:1 mixtures of Form C and Form F were slurried in 3:1 water:ethanol at a range of temperatures to determine the relative stability at different temperatures. […] Ethanol was used in addition to water in order to increase the amount of Compound I in solution and so increase the rate of conversion between forms. Ethanol was chosen as no ethanol solvate of Compound I was known. 10 mg of Form C was mixed with 10 mg of Form F in a glass vial. 2.0 ml of 3:1 water:ethanol was added and the resulting slurry was stirred at 5° C. for 24 hours. Solid was isolated by filtration and analysed by XRPD.
as §1
1:1 mixtures of Form F and Form G were slurried in 3:1 water:ethanol at a range of temperatures to determine the relative stability at different temperatures. 10 mg of Form F was mixed with 10 mg of Form G in a glass vial. 2.0 ml of 3:1 water:ethanol was added and the resulting slurry was stirred at 5° C. for 24 hours. The resulting solid was isolated by filtration and analysed by XRPD. The above procedure was repeated at 25, 50 and 70° C. 70° C. was used instead of 80° C. in an attempt to reduce degradation.

Data set [6] in a line: Apparent solubilities of Form A at room temperature and at 60° C. The conditions noted are these: thermodynamic from solid.

Results on four compounds are retold here after patent US20110086891A1, “Solid Forms of 2-(2,4-Difluorophenyl)-6-(1-(2,6-Difluorophenyl)Ureido)Nicotinamide)” (Vertex Pharmaceuticals Incorporated, priority 2009, published 2011).

In general, solubility refers to the concentration that dissolves in the medium under given conditions.

The structures appear in SMILES notation. Values after ≈ are worked out from the molar mass of the structure shown. “Also recorded” adds a separate entry of the source.

For the compound `NC(=O)c1ccc(N(C(N)=O)c2c(F)cccc2F)nc1-c1ccc(F)cc1F` [Form P, 2-(2,4-difluorophenyl)-6-(1-(2,6-difluorophenyl)ureido)nicotinamide•MeOH], in data set [1], the “results of stability studies as seen by XRPD (before and after spectra)” value (from here on “results of stability studies as seen”) was “before and after spectra illustrate formation of Form C”. In data set [2] (VT-XRD, 5° C. increments from 25 to 50° C.), the “temperature of transition of Form P to Form A” value is “approximately 40 °C”. In data set [2], the “form conversion on heating” value is “convert to Form A upon heating to 50 °C and then to Form C upon heating to 100 °C”; the “form conversion upon slurrying in a non-solvate forming solvent” value is on record as “convert to Form C”. The “relative stability of Form A and Form P” value in data set [2] (room temperature, VT-XRD) is on record as “the more stable of the two at room temperature”.

As for `NC(=O)c1ccc(N(C(N)=O)c2c(F)cccc2F)nc1-c1ccc(F)cc1F` [Form G, 2-(2,4-difluorophenyl)-6-(1-(2,6-difluorophenyl)ureido)nicotinamide], in data set [3], the solubility in water result is on record as “at least 0.020 mg/mL”. In addition, in data set [4], the hygroscopicity result is “highly hygroscopic” and the “weight gain in water at 90% RH” value was “more than 8%”. Also, the “total water gain (in weight) at 10% RH” value in data set [4] (10% RH) is recorded as 1%. Besides, the “results of stability studies as seen” value in data set [1] was “before and after spectra are similar”. For the same compound, in data set [1] (40° C./75% RH), the “time remaining chemically stable” value is recorded as “at least two” and the “time remaining in substantially the same physical form” value is “at least two”. Further, the “relative stability between forms” value in data set [5] is “more stable than Form F at 5 °C”. Also, the “form conversion after the addition of water” value in data set [2] (20° C. to 50° C., 2, 5 and 24 hours after addition of water) was “convert into Form Q”. Further, the “form conversion on heating” value in data set [2] is “converted into Form F on heating above about 130 °C”.

In the case of `NC(=O)c1ccc(N(C(N)=O)c2c(F)cccc2F)nc1-c1ccc(F)cc1F` [Form A, 2-(2,4-difluorophenyl)-6-(1-(2,6-difluorophenyl)ureido)nicotinamide•MeOH], the solubility in data set [6] (organic solvent or mixture, 60° C., 1-Butanol) is 2900 µg/mL (≈ 7.17 mM); in data set [6] (organic solvent or mixture, 60° C., Butyl Acetate), 1900 µg/mL (≈ 4.7 mM); in data set [6] (organic solvent or mixture, room temperature, 1-Butanol), 2000 µg/mL (≈ 4.95 mM); in data set [6] (organic solvent or mixture, room temperature, 2-Butanone), 3400 µg/mL (≈ 8.41 mM); in data set [6] (organic solvent or mixture, room temperature, 2-Propanol), < 800 µg/mL; in data set [6] (organic solvent or mixture, room temperature, 2-Propyl Acetate) it was 2900 µg/mL (≈ 7.17 mM). Further, the solubility was 6400 µg/mL (≈ 15.8 mM) in data set [6] (organic solvent or mixture, room temperature, Acetone); 3800 µg/mL (≈ 9.4 mM) in data set [6] (organic solvent or mixture, room temperature, Acetonitrile); > 100000 µg/mL in data set [6] (organic solvent or mixture, room temperature, Dimethylformamide); 5700 µg/mL (≈ 14.1 mM) in data set [6] (organic solvent or mixture, room temperature, Ethanol); 7200 µg/mL (≈ 17.8 mM) in data set [6] (organic solvent or mixture, room temperature, Ethyl Acetate); < 900 µg/mL in data set [6] (organic solvent or mixture, room temperature, Heptane). In addition, the solubility is 5700 µg/mL (≈ 14.1 mM) in data set [6] (organic solvent or mixture, room temperature, Methanol); < 800 µg/mL in data set [6] (organic solvent or mixture, room temperature, Methylene Chloride); 1500 µg/mL (≈ 3.71 mM) in data set [6] (organic solvent or mixture, room temperature, Tetrahydrofuran); < 900 µg/mL in data set [6] (room temperature, Water). Besides, the “results of stability studies as seen” value in data set [1] was “before and after spectra illustrate formation of Form C”. In addition, the “form conversion upon storage” value in data set [1] (40° C./75% RH) is recorded as “become Form C described herein after one to four weeks; also recorded: convert to Form C upon storage at 40° C./75% RH for one week or longer”. Also, the “form conversion on cooling” value in data set [2] (cooling) was “convert to Form P upon cooling below about 50 °C”. In addition, the “form conversion on heating” value in data set [2] was “become crystalline Form C upon heating to 100 °C”. The “form conversion upon slurrying in a non-solvate forming solvent” value in data set [2] is reported as “become crystalline Form C”.

Turning to `NC(=O)c1ccc(N(C(N)=O)c2c(F)cccc2F)nc1-c1ccc(F)cc1F` [Form F, 2-(2,4-difluorophenyl)-6-(1-(2,6-difluorophenyl)ureido)nicotinamide], the solubility in water entry in data set [3] was “at least 0.021 mg/mL”. Further, in data set [4] (40% RH), the “total weight gain in water at 40% RH” value amounted to 1%. In addition, the “weight gain in water at 90% RH” value in data set [4] amounted to 1.1%. Also, in data set [1] (40° C./75% RH), the “time remaining chemically stable” value is “at least 2 weeks” and the “time remaining in substantially the same physical form” value is “at least 2 weeks”. In addition, the “fate of the form on slurrying” value in data set [5] is “At 5 and 25° C., Form F was observed to convert to Form G; also recorded: not recovered after slurrying at any of the four temperatures”.
